Measurements: US20240182513A1, “SEPARATION OF METAL IONS FROM A SAMPLE USING GLYCOLIPIDS” (ARIZONA BOARD OF REGENTS ON BEHALF OF THE UNIVERSITY OF …, priority 2021, published 2024)

Test: Ion flotation of uranium from Monument Valley groundwater with rhamnolipid collectors
Excerpt: Groundwater Collection and Analysis: The Monument Valley site is in Cane Valley, AZ, which is in northeastern Arizona. Groundwater was collected from monitoring well 662, which is down gradient of the source zone within the boundaries of the uranium groundwater plume. Samples were collected using dedicated bladder pumps and a QED Micropurge Controller. Groundwater was collected into a 50 L LDPE carboy (Thermo Scientific Nalgene) after the groundwater's pH and dissolved oxygen levels from the pump stabilized. The solution was stored as received, on the lab bench at ambient temperature until use.
For cation and anion analysis, groundwater was filtered ([…]) then diluted with 2% trace metals grade nitric acid (Fisher Scientific, Waltham, MA) in metal-free polypropylene 15 mL centrifuge tubes (VWR, Radnor, PA). Cations were analyzed using an Elan DRC-II inductively coupled plasma mass spectrometer (ICP-MS). Anions (F^−1, Cl^−1, Br^−1, NO2^−1, NO3^−1, […], and SO4^−2) were analyzed by using a Thermo Scientific Dionex ICS-6000 high-performance ion chromatography system. Data generated in this geochemical analysis were used to model uranium speciation using Visual MINTEQ 3.1. Only major solution constituents—those greater than 10 μg L^−1 for metals or 5 μmol L^−1 for anions—were included in the experiment, and carbonates were excluded because they are stripped from solution when nitrogen is sparged in the flotation process.
Chemicals: Both biosynthetic and synthetic monorhamnolipid collectors were tested for flotation efficiency. Biosynthetic monorhamnolipid tail lengths ‘m’ and ‘n’ range from 4 to 12 due to natural congener variation. Synthetic monorhamnolipids (Rha-C10-C10, Rha-C12-C12, or Rha-C14-C14) were synthesized with equal length tails where ‘m’=‘n’=6-14. The production and purification of biosynthetic monorhamnolipids (bio-mRL) from Pseudomonas aeruginosa ATCC 9027 has been previously described by Hogan et al., J. Hazard. Mater. 2017, 340, pp. 171-178. This organism exclusively produces monorhamnolipids—rhamnolipids with a single rhamnose sugar in the hydrophilic moiety of the molecule—as a congener mixture with varying hydrophobic tail lengths, in which the rhamnosyl-β-hydroxydecanoyl-β-hydroxydecanoate (C10-C10) dominates at 75-85 wt %. A molecular weight of 504 g mol^−1 (based on the C10-C10 structure) was used to estimate the bio-mRL concentration. Synthetic monorhamnolipids with decyl (Rha-C10-C10), dodecyl (Rha-C12-C12), and tetradecyl (Rha-C14-C14) hydrophobic moieties were prepared for comparative experiment. The molecular weights of the synthetic monorhamnolipids are 504.7, 560.8, and 616.9, respectively. All solutions were made using nanopure water (≥18 MΩ-cm). pH was adjusted with HNO3 and NaOH. […]

Question: Which results are given for `CCCCCCCCCC(CC(=O)O)OC(=O)CC(CCCCCCCCC)OC1O[C@@H](C)[C@H](O)[C@@H](O)[C@H]1O` (stereo partly drawn) [Rha C12C12, rhamnosyl-β-hydroxydodecanoyl-62-hydroxydodecanoate]?
Answer: uranium removal (native pH 8): did not collect metals; uranium removal percentage (pH 6.5): 6.6%; uranium removal (pH 7): No significant amount of uranium was removed
